Source: ChEMBL document CHEMBL1132057, “Effects of 3alpha- and 3beta-galactosylated alpha-galactosylceramides on the immune system” (1999)

Key:
Format in all cases: functional
Mus musculus [1] = species: Mus musculus; test: Effect on the proliferation of murine spleen cells evaluated in terms of [3H]TdR uptake into the cells at a concentration of 1 ng/mL
Mus musculus [2] = species: Mus musculus; test: Effect on the proliferation of murine spleen cells evaluated in terms of [3H]TdR uptake into the cells at a concentration of 10 ng/mL
Mus musculus [3] = species: Mus musculus; test: Effect on the proliferation of murine spleen cells evaluated in terms of [3H]TdR uptake into the cells at a concentration of 100 ng/mL

CCCCCCCCCCCCCCC[C@@H](O)[C@H](CO[C@H]1O[C@@H](CO)[C@H](O)[C@H](O)[C@@H]1O)NC(=O)CCCCCCCCCCCCC was tested. Which 3H-TdR incorpolation (Mus musculus [1]) did it give?
Its 3H-TdR incorpolation is 9018 c.p.m.

What about the 3H-TdR incorpolation (Mus musculus [2]) of the same molecule?
The 3H-TdR incorpolation was 44395 c.p.m.

What about the 3H-TdR incorpolation (Mus musculus [3]) of the same molecule?
The 3H-TdR incorpolation was 44395 c.p.m.

CCCCCCCCCCCCCCCCCCCCCC[C@@H](O)C(=O)N[C@@H](CO[C@H]1O[C@@H](CO)[C@H](O)[C@H](O)[C@@H]1O)[C@H](O)CCCCCCCCCCCCCCC was tested. Which 3H-TdR incorpolation (Mus musculus [1]) did it give?
The 3H-TdR incorpolation was 9454 c.p.m.

And the 3H-TdR incorpolation (Mus musculus [2])?
The 3H-TdR incorpolation was 20283 c.p.m.

What about the 3H-TdR incorpolation (Mus musculus [3]) of the same molecule?
The 3H-TdR incorpolation was 45966 c.p.m.

How did the 3H-TdR incorpolation (Mus musculus [1]) turn out when CCCCCCCCCCCCCCC[C@@H](O[C@H]1O[C@@H](CO)[C@H](O)[C@H](O)[C@@H]1O)[C@H](CO)NC(=O)CCCCCCCCCCCCC was run?
Its 3H-TdR incorpolation is 7722 c.p.m.

What about the 3H-TdR incorpolation (Mus musculus [2]) of the same molecule?
The 3H-TdR incorpolation was 7412 c.p.m.

What about the 3H-TdR incorpolation (Mus musculus [3]) of the same molecule?
Its 3H-TdR incorpolation is 6141 c.p.m.

How did the 3H-TdR incorpolation (Mus musculus [1]) turn out when CCCCCCCCCCCCCCCCCCCCCC[C@@H](O)C(=O)N[C@@H](CO[C@H]1O[C@@H](CO)[C@H](O)[C@H](O)[C@@H]1O)[C@@H](CCCCCCCCCCCCCCC)O[C@@H]1O[C@@H](CO)[C@H](O)[C@H](O)[C@@H]1O was run?
The 3H-TdR incorpolation was 7892 c.p.m.

And the 3H-TdR incorpolation (Mus musculus [2])?
Its 3H-TdR incorpolation is 13195 c.p.m.

And the 3H-TdR incorpolation (Mus musculus [3])?
Its 3H-TdR incorpolation is 45036 c.p.m.

CCCCCCCCCCCCCCCCCCCCCC[C@@H](O)C(=O)N[C@@H](CO[C@H]1O[C@@H](CO)[C@H](O)[C@H](O)[C@@H]1O)[C@@H](CCCCCCCCCCCCCCC)O[C@H]1O[C@@H](CO)[C@H](O)[C@H](O)[C@@H]1O was tested. Which 3H-TdR incorpolation (Mus musculus [1]) did it give?
The 3H-TdR incorpolation was 16138 c.p.m.

What about the 3H-TdR incorpolation (Mus musculus [2]) of the same molecule?
The 3H-TdR incorpolation was 34892 c.p.m.

And the 3H-TdR incorpolation (Mus musculus [3])?
Its 3H-TdR incorpolation is 44867 c.p.m.
